Counter-ions that a name gives are not always drawn.
Columns and labels:
[1] = tested on: XMRV; assay: XMRV replication in MCF-7 cells (viral release by RT activity in supernatant); type: cell-based; conditions: for EC50 / EC90: MCF7, 144 h; for EC50: read-out: XMRV in MCF-7 cells EC50; for EC90: read-out: XMRV in MCF-7 cells EC90; for therapeutic index (TI, the ratio of CC50/EC50): XMRV, MCF-7 cells; for activity against XMRV (in words): tested up to 100 µM, Figure 1
[2] = Cytotoxicity in MCF-7 cells (MTT / CellTiter 96 AQueous One); type: cell-based, human; conditions: human
Description: (§1) We tested a total of 45 compounds belonging to different classes of HIV-1 inhibitors, and a few inhibitors of viruses other than retroviruses, for their ability to inhibit XMRV replication in cultured cells. LNCaP and MCF-7 cells were chosen for their ability to support robust in vitro replication of XMRV. […] To determine if a reduction in viral release might be due to toxicity of the compound and not due to specific antiretroviral activity, cellular morphology was monitored every 24 h by microscopic examination, and an MTT [3-(4,5-dimethylthiazol-2-yl)-2,5-diphenyltetrazolium bromide] colorimetric assay was used to measure potential cytotoxicity produced by the compounds. Supernatants were collected every 24 h and assayed for viral release by measuring RT activity. […] For comparison purposes, all compounds evaluated in these studies were also tested against HIV-1LAI in primary human lymphocytes.
(§2) Each well was carefully monitored for signs of cellular toxicity due to the inhibitors by microscopic observation every 24 h. In addition, cell viability was measured using the CellTiter 96 AQueous One Solution cell proliferation assay according to the manufacturer (Promega, Madison, Wis). Viral release from the cells was assayed by measuring RT activity in the supernatant. For this, supernatant from each well was collected every 24 h and frozen at −20°C until it was analyzed by RT assay for viral release as described previously. In brief, oligo(dT)·poly(rA) primer-template assays were performed in the presence of radiolabeled [α-^32P]dTTP and Mn^2+. After incubating the viral supernatants with the RT reaction mix for 1 h at 37°C, samples were spotted onto DE81 DEAE cellulose paper (Whatman) and unincorporated label washed away with 2× SSC (1× SSC = 0.15 M NaCl and 0.015 M sodium citrate). […] Inhibition of viral release as measured on day 6 after inoculation was averaged over 3–5 experiments and plotted. The antiviral EC50 and cytotoxic concentrations (CC50,) was determined from the concentration–response curve using the median effect method. HIV-1 replication assays were performed as described previously using peripheral blood mononuclear cells (PBMC) obtained from the American Red Cross, Atlanta, GA, that were stimulated with phytohemagglutinin (PHA) for 72 hr.

[3] = tested on: HIV-1LAI; assay: HIV-1 replication in PHA-stimulated peripheral blood mononuclear cells; type: cell-based; conditions: Human immunodeficiency virus 1, PBMC; for EC50: read-out: HIV-1 in PBM cells EC50; for EC90: read-out: HIV-1 in PBM cells EC90
Description: as §1, §2

[4] = Cytotoxicity in PBM cells; type: cell-based; conditions: human, read-out: HIV-1 in PBM cells CC50
Description: as §2

[5] = tested on: XMRV; assay: XMRV replication in LNCaP cells (viral release by RT activity in supernatant); type: cell-based; conditions: for EC50: read-out: EC50 in LNCaP cells; for EC90: read-out: EC90 in LNCaP cells; for inhibition at 100 µM: read-out: inhibition of XMRV replication
Description: as §1
Viral release from XMRV-infected LNCaP cells in the presence of increasing concentrations of (A) ZDV (B) TDF (C) RAL and (D) L-000870812, was determined by measuring RT activity in the supernatants. […] Cell viability was checked by microscopy, quantified by the MTT assay, and represented by shaded bars. Data for each compound were derived from an average of at least three independent experiments, each performed in duplicate.
293T cells (ATCC, CRL-11268) were transfected with pXMRV1, an infectious clone of XMRV [2]. Virus released in the supernatant was harvested and titrated by inoculating MCF-7 cells, a breast cancer cell line (ATCC, HTB-22) at 70% confluence, with a series of ten-fold dilutions of XMRV in serum-free medium, followed 36–48 hrs later by fixation of cells in paraformaldehyde and processing for immunofluorescence using a rabbit antiserum developed against inactivated XMRV [2]. […] Virus was diluted in serum-free medium and used to inoculate cells at a multiplicity of infection (MOI) of approximately 3, in the presence of various antiviral compounds as described below. LNCaP, a prostate cancer cell line (ATCC, CRL-1740) and MCF-7 cells were grown to about 50% confluence in DMEM containing 10% heat inactivated fetal bovine serum, […]. Cells were washed twice with Dulbecco's phosphate buffered saline (DPBS, Gibco), and incubated with the viral inoculum for 90 min at 37°C in the presence of 95% air and 5% CO2, cells were washed twice with DPBS, detached with Trypsin-EDTA (0.25% Trypsin; Cellgro), and counted. One thousand cells were added to each well of a 96-well plate, along with an equal volume of medium containing the retroviral inhibitor at 2-fold the desired concentration. […] For controls, wells containing water or DMSO at appropriate concentrations were used.
Each well was carefully monitored for signs of cellular toxicity due to the inhibitors by microscopic observation every 24 h. In addition, cell viability was measured using the CellTiter 96 AQueous One Solution cell proliferation assay according to the manufacturer (Promega, Madison, Wis). Viral release from the cells was assayed by measuring RT activity in the supernatant. For this, supernatant from each well was collected every 24 h and frozen at −20°C until it was analyzed by RT assay for viral release as described previously. In brief, oligo(dT)·poly(rA) primer-template assays were performed in the presence of radiolabeled [α-^32P]dTTP and Mn^2+. After incubating the viral supernatants with the RT reaction mix for 1 h at 37°C, samples were spotted onto DE81 DEAE cellulose paper (Whatman) and unincorporated label washed away with 2× SSC (1× SSC = 0.15 M NaCl and 0.015 M sodium citrate).

[6] = tested on: MCF-7 cells; assay: Cytotoxicity in MCF-7 cells (MTT / CellTiter 96 AQueous One); type: cell-based, human
Description: as §1, §2

[7] = peripheral blood mononuclear (PBM) cells
[8] = MCF-7 cells, read-out: XMRV in MCF-7 cells CC50
[9] = XMRV-infected MCF-7 cells, RT activity in supernatant, day 6

SMILES	EC50 [1] [µM]	EC90 [1] [µM]	CC50 [2] [µM]	EC50 [3] [µM]	EC90 [3] [µM]	CC50 [4, 7] [µM]	CC50 [2, 8] [µM]	also measured
Cc1cn([C@H]2C[C@H](N=[N+]=[N-])[C@@H](CO)O2)c(=O)[nH]c1=O [3'-Azido-3'-deoxythymidine (ZDV), 3'-Azido-3'-deoxythymidine]	0.11	7.3	65	0.0052	0.036	> 100	–	therapeutic index (TI, the ratio of CC50/EC50) [1]: 591; EC50 ([5]; LNCaP): 0.14 µM; EC90 ([5]; LNCaP): 1.1 µM
Cc1cn([C@H]2C[C@H](F)[C@@H](CO)O2)c(=O)[nH]c1=O [3'-Fluoro-3'-deoxythymidine (FLT), 3'-Fluoro-3'-deoxythymidine]	7.9	> 100	75.8	0.00018	0.005	13.8	–	inhibition at 100 µM ([5]; LNCaP): > 70%
Nc1nc2c(ncn2[C@H]2C=C[C@@H](CO)C2)c(=O)[nH]1 [(-)-carbovir (CBV), (-)-carbovir]	–	–	–	–	–	–	–	CC50 [6]: > 100 µM; inhibition of XMRV replication ([5]; 100 µM, see Table S1 (cell line not given)): greater than 70%
Cc1cn([C@H]2C=C[C@@H](CO)O2)c(=O)[nH]c1=O [Stavudine (D4T), Stavudine]	75.6	> 100	–	0.09	0.49	> 100	> 100	inhibition at 100 µM ([5]; LNCaP): > 70%
Cc1nnc(C(=O)NC(C)(C)c2nc(C(=O)NCc3ccc(F)cc3)c(O)c(=O)n2C)o1 [Raltegravir (RAL, MK-0518), Raltegravir]	–	–	–	0.0014	0.0089	–	92.3	EC50 [1, 9]: 0.005 µM; EC90 [1, 9]: 3.5 µM; therapeutic index (TI, the ratio of CC50/EC50) [1]: 18,460; CC50 [4]: > 100 µM; EC50 ([5]; XMRV-infected LNCaP cells): 0.03 µM; EC90 ([5]; XMRV-infected LNCaP cells): 0.46 µM
CC(C)OC(=O)OCOP(=O)(CO[C@H](C)Cn1cnc2c(N)ncnc21)OCOC(=O)OC(C)C [Tenofovir disoproxil fumarate (TDF), Tenofovir disoproxil fumarate]	0.24	15.3	52.2	0.016	0.18	17.8	–	therapeutic index (TI, the ratio of CC50/EC50) [1]: 218; EC50 ([5]; LNCaP): 0.9 µM; EC90 ([5]; LNCaP): 4.2 µM
Nc1ccn([C@H]2C=C[C@@H](CO)O2)c(=O)n1 [D4C]	–	–	–	–	–	–	–	CC50 [6]: > 100 µM
Nc1nc2c(ncn2C2COC(CO)O2)c(=O)[nH]1 [9-(β-D-1,3-Dioxolan-4-yl)guanine (DXG), 9-(β-D-1,3-Dioxolan-4-yl)guanine]	–	–	–	–	–	–	–	activity against XMRV (in words) [1]: essentially inactive; CC50 [6]: > 100 µM
O=C1Nc2ccc(Cl)cc2[C@@](C#CC2CC2)(C(F)(F)F)O1 [Efavirenz]	51.6	93	–	0.00073	0.0027	18.4	60.4	activity against XMRV (in words) [1]: did not demonstrate any major activity
Nc1ccn(C[C@@H](CO)OCP(=O)(O)O)c(=O)n1 [Vistide (HPMPC), Vistide]	85.3	> 100	–	> 100	> 100	> 100	> 100	–
Cc1c(O)cccc1C(=O)N[C@@H](CSc1ccccc1)[C@H](O)CN1C[C@H]2CCCC[C@H]2C[C@H]1C(=O)NC(C)(C)C [Nelfinavir]	–	> 100	7.4	0.018	0.067	73.8	–	EC50 [1, 9]: 34.3 µM
C[C@]12CC[C@H](O)CC1=CC[C@@H]1[C@@H]2CC[C@]2(C)C(=O)CC[C@@H]12 [Dehydroepiandrosterone (DHEA), Dehydroepiandrosterone]	68.6	> 100	–	15.1	71.2	–	64.1	CC50 [4]: > 100 µM

Reference: article PMC2848589, “Raltegravir Is a Potent Inhibitor of XMRV, a Virus Implicated in Prostate Cancer and Chronic Fatigue Syndrome” (PLoS ONE, 2010)
